Where two headings read alike, the source gives them in different places.
Experiments:
[1] = target: T1, KRAS protein (His-tagged GDP-loaded G12S 1-169) (Homo sapiens, UniProt P01116, G12S); test: Covalent modification of KRAS protein, intact-protein LC-MS; type: binding; conditions: 24hrs at room temperature, KRAS protein ~2 µM
T1 construct: His-tagged GDP-loaded G12S 1-169
How it was run: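 Percent covalent modification derives from deconvoluted intact-mass intensities of compound-adducted versus unmodified KRAS, measured by LC-ESI-MS. Before analysis, ~2 µM GDP-loaded His-KRAS 1-169 was exposed to compound for 24 h at room temperature and acidified with formic acid.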

K-Ras G12S = target: T2, K-Ras G12S (Homo sapiens, UniProt P01116, G12S); test: HTRF assay of the K-Ras / SOS1 interaction; type: biochemical; conditions: IC50 (against K-Ras G12D) to IC50 (against K-Ras G12S)
T2 construct: made in house; host or cells: E. coli (e.g., BL21 (DE3))
How it was run: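 Compounds (duplicates, 10 µM to 0.01 µM) were incubated ≥~10 min with Eu-labelled GST-K-Ras G12S and XL665-labelled His-hSOS1 in HEPES pH 7.4 buffer containing NaCl, DTT, BSA and Igepal. Disruption measured as HTRF emission ratio 665/620 nm, fitted to IC50.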

[2] = Metabolic (microsomal) stability assay; type: in vitro ADME; conditions: mouse and/or human liver microsomal metabolism assays, greater than 10, 20, 30, 40, 50, 60 mins or longer
Description: All incubations are conducted in duplicate. […] Supernatants (40 µL) are transferred into clean 96-deep well plates.
The column temperature is maintained at 40 °C.
(Ct)/(C0) = e^−kt [formula]

GP2D cells = test: Cell proliferation assay (CellTiter-Glo), K-Ras G12D cells; type: cell-based; conditions: GP2D cells (K-Ras G12D); read-out: Inhibition of GP2D Cells (IC50)
How it was run: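 CellTiter-Glo luminescence, taken roughly 5 days after dosing, measured growth of G12D-mutant GP2D cells in DMEM/2 mM glutamine/10% FBS. Compound dilution series (e.g., 9 points, 3-fold) added the day after plating. Four-parameter fitting gave IC50.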

A549 cells = test: Cell proliferation assay (CellTiter-Glo), K-Ras G12S cells; type: cell-based; conditions: for IC50: Homo sapiens, A549, A549 cells (K-Ras G12S), read-out: Inhibition of A549 Cells (IC50); for ratio of IC50 against a G12D cell line to IC50 against a G12S cell line: K-Ras G12D cell line such as GP2D relative to K-Ras G12S cell line such as A549, greater than 1, 2, 3, 4, 5, 10, 15 or even greater, 8640 min
How it was run: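 A549 cells (K-Ras G12S) in RPMI-1640 with 10% FBS, seeded in standard or ultra-low-attachment plates and dosed next day with a 10-point 3-fold series. Viability read about 6 days later by CellTiter-Glo luminescence. IC50 from four-parameter fit.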

Row | Structure (SMILES) | IC50 (A549 cells; bin ≤ 500 nM) [nM] | ratio of IC50 against a G12D cell line to IC50 against a G12S cell line (A549 cells) | % G12S Modification at 24 hr. [1] | Ratio of IC50 KRAS G12D vs. IC50 KRAS G12S (K-Ras G12S) | T1/2 ([2]; 0.5 µM) | IC50 (GP2D cells) [nM] | half-life at 0.5 µM ([2]; liver microsomes, pH 7.4) [min] | IC50 (A549 cells; bin 500 nM to 5 µM) [nM]
1 | N#Cc1c(N)sc2c(F)ccc(-c3c(Cl)cc4c(N5CC6CCC(C5)N6C(=O)n5ncnc5Cl)nc(OC[C@@]56CCCN5C[C@H](F)C6)nc4c3F)c12 [Compound A194] |  |  | ++ (++ indicates between about 1%- 20% labelling) | A (A: indicates that the ratio of IC50 against KrasG12D vs. IC50 against KrasG12S is 1-fold or greater) | greater than 10 mins | ≤ 1000 |  | 
2 | C#Cc1c(F)ccc2cc(O)cc(-c3ncc4c(N5CCCCC6(CN(C(=O)n7cncn7)C6)C5)nc(OC[C@@]56CCCN5C[C@H](F)C6)nc4c3F)c12 [Compound A128, (6-(7-(8-ethynyl-7-fluoro-3-hydroxynaphthalen-1-yl)-8-fluoro-2-(((2R,7aS)-2-fluorotetrahydro-1H-pyrrolizin-7a(5H)-yl)methoxy)pyrido[4,3-d]pyrimidin-4-yl)-2,6-diazaspiro[3.6]decan-2-yl)(1H-1,2,4-triazol-1-yl)methanone] | ≤ 500 | greater than 1 | +++ (+++ indicates greater than 20% labelling) |  |  | ≤ 1000 |  | 
3 | N#Cc1cnn(C(=O)N2C3CCC2CN(c2nc(OC[C@@]45CCCN4C[C@H](F)C5)nc4c(F)c(-c5ccc(F)c6sc(N)c(C#N)c56)c(Cl)cc24)C3)c1 [Compound A278, 1-(3-(7-(2-amino-3-cyano-7-fluorobenzo[b]thiophen-4-yl)-6-chloro-8-fluoro-2-(((2R,7aS)-2-fluorotetrahydro-1H-pyrrolizin-7a(5H)-yl)methoxy)quinazolin-4-yl)-3,8-diazabicyclo[3.2.1]octane-8-carbonyl)-1H-pyrazole-4-carbonitrile] |  |  |  | A (A: indicates that the ratio of IC50 against KrasG12D vs. IC50 against KrasG12S is 1-fold or greater) |  | ≤ 1000 | > 10 | 
4 | C#Cc1c(F)ccc2cc(O)cc(-c3ncc4c(N5CC6CCC(C5)N6C(=O)n5cnc(C#N)c5)nc(OC[C@@]56CCCN5C[C@H](F)C6)nc4c3F)c12 [Compound A255, 1-(3-(7-(8-ethynyl-7-fluoro-3-hydroxynaphthalen-1-yl)-8-fluoro-2-(((2R,7aS)-2-fluorotetrahydro-1H-pyrrolizin-7a(5H)-yl)methoxy)pyrido[4,3-d]pyrimidin-4-yl)-3,8-diazabicyclo[3.2.1]octane-8-carbonyl)-1H-imidazole-4-carbonitrile] |  |  | ++ (++ indicates between about 1%- 20% labelling) |  |  | ≤ 1000 |  | 500 to 5000
5 | C[C@H](Oc1nc(N2CCCCC3(CN(C(=O)n4cncn4)C3)C2)c2cc(Cl)c(-c3ccc(F)c4sc(N)c(C#N)c34)c(F)c2n1)[C@@H]1CCCN1C [Compound A219, 4-(4-(2-(1H-1,2,4-triazole-1-carbonyl)-2,6-diazaspiro[3.6]decan-6-yl)-6-chloro-8-fluoro-2-((S)-1-((S)-1-methylpyrrolidin-2-yl)ethoxy)quinazolin-7-yl)-2-amino-7-fluorobenzo[b]thiophene-3-carbonitrile] | ≤ 500 | greater than 1 | +++ (+++ indicates greater than 20% labelling) |  |  | ≤ 1000 |  | 

Further lines, with some results ahead:

Row | IC50 (A549 cells; bin ≤ 500 nM) [nM] | ratio of IC50 against a G12D cell line to IC50 against a G12S cell line (A549 cells) | Structure (SMILES) | % G12S Modification at 24 hr. [1] | Ratio of IC50 KRAS G12D vs. IC50 KRAS G12S (K-Ras G12S) | T1/2 ([2]; 0.5 µM) | IC50 (GP2D cells) [nM] | half-life at 0.5 µM ([2]; liver microsomes, pH 7.4) [min] | IC50 (A549 cells; bin 500 nM to 5 µM) [nM]
6 | ≤ 500 |  | N#Cc1c(N)sc2c(F)ccc(-c3c(Cl)cc4c(N5CCCCC6(CN(C(=O)n7cncn7)C6)C5)nc(OC[C@@]56CCCN5C[C@H](F)C6)nc4c3F)c12 [Compound A295, 4-(4-(2-(1H-1,2,4-triazole-1-carbonyl)-2,6-diazaspiro[3.6]decan-6-yl)-6-chloro-8-fluoro-2-(((2R,7aS)-2-fluorotetrahydro-1H-pyrrolizin-7a(5H)-yl)methoxy)quinazolin-7-yl)-2-amino-7-fluorobenzo[b]thiophene-3-carbonitrile] | +++ (+++ indicates greater than 20% labelling) |  |  | ≤ 1000 |  | 
7 | ≤ 500 |  | C[C@H](Oc1nc(N2CCOC3(CN(C(=O)n4cncn4)C3)C2)c2cc(Cl)c(-c3ccc(F)c4sc(N)c(C#N)c34)c(F)c2n1)[C@@H]1CCCN1C [Compound A275, 4-(4-(2-(1H-1,2,4-triazole-1-carbonyl)-5-oxa-2,8-diazaspiro[3.5]nonan-8-yl)-6-chloro-8-fluoro-2-((S)-1-((S)-1-methylpyrrolidin-2-yl)ethoxy)quinazolin-7-yl)-2-amino-7-fluorobenzo[b]thiophene-3-carbonitrile] | +++ (+++ indicates greater than 20% labelling) |  |  | 1000 to 10000 |  | 
8 | ≤ 500 |  | N#Cc1c(N)sc2c(F)ccc(-c3c(Cl)cc4c(N5CCC6CN(C(=O)n7cncn7)CC65)nc(OC[C@@]56CCCN5C[C@H](F)C6)nc4c3F)c12 (stereo partly drawn) [Compound A178, 4-(4-(5-(1H-1,2,4-triazole-1-carbonyl)hexahydropyrrolo[3,4-b]pyrrol-1(2H)-yl)-6-chloro-8-fluoro-2-(((2R,7aS)-2-fluorotetrahydro-1H-pyrrolizin-7a(5H)-yl)methoxy)quinazolm-7-yl)-2-amino-7-fluorobenzo[b]thiophene-3-carbonitrile] | +++ (+++ indicates greater than 20% labelling) |  |  | ≤ 1000 |  | 
9 | ≤ 500 | greater than 1 | C#Cc1c(F)ccc2cc(O)cc(-c3ccc4c(N5CCCC6(CN(C(=O)n7cncn7)C6)C5)nc(OC[C@@]56CCCN5C[C@H](F)C6)nc4c3F)c12 [Compound A210, (6-(7-(8-ethynyl-7-fluoro-3-hydroxynaphthalen-1-yl)-8-fluoro-2-(((2R,7aS)-2-fluorotetrahydro-1H-pyrrolizin-7a(5H)-yl)methoxy)quinazolin-4-yl)-2,6-diazaspiro[3.5]nonan-2-yl)(1H-1,2,4-triazol-1-yl)methanone] | +++ (+++ indicates greater than 20% labelling) |  |  | 1000 to 10000 |  | 
10 | ≤ 500 |  | C#Cc1c(F)ccc2cc(O)cc(-c3ncc4c(N5CCOC6(CN(C(=O)n7cncn7)C6)C5)nc(OC[C@@]56CCCN5C[C@H](F)C6)nc4c3F)c12 [Compound A106, (8-(7-(8-ethynyl-7-fluoro-3-hydroxynaphthalen-1-yl)-8-fluoro-2-(((2R,7aS)-2-fluorotetrahydro-1H-pyrrolizin-7a(5H)-yl)methoxy)pyrido[4,3-d]pyrimidin-4-yl)-5-oxa-2,8-diazaspiro[3.5]nonan-2-yl)(1H-1,2,4-triazol-1-yl)methanone] | +++ (+++ indicates greater than 20% labelling) |  |  | 1000 to 10000 |  | 
